Results from PubChem BioAssay (NCI).
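Results reflect a 48-hour exposure of cells in 96-well plates to compound at five concentrations. Abbreviation: GI50, concentration required for 50% inhibition of growth. TGI: concentration producing complete growth inhibition.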

How the values were obtained:
Assay in all cases: NCI anticancer screen, dose series, 48 h
[1] = test system: KM12 colon
[2] = test system: SK-MEL-28 melanoma
[3] = test system: HCT-116 colon
[4] = test system: A549 NSCLC
[5] = test system: HL-60(TB) leukemia
[6] = test system: MCF7 breast
[7] = test system: LOX IMVI melanoma
[8] = test system: OVCAR-5 ovarian
[9] = test system: UACC-62 melanoma
[10] = test system: IGROV1 ovarian
[11] = test system: K-562 leukemia
[12] = test system: NCI-H460 lung
[13] = test system: TK-10 renal
[14] = test system: U251 CNS
[15] = test system: SW-620 colon
[16] = test system: DU-145 prostate
[17] = test system: HS 578T breast
[18] = test system: HCT-15 colon
[19] = test system: SNB-75 CNS
[20] = test system: HOP-62 NSCLC
[21] = test system: MDA-N
[22] = test system: 786-0 renal
[23] = test system: A498 renal
[24] = test system: SF-295 CNS
[25] = test system: RXF 393 renal
[26] = test system: SK-MEL-5 melanoma
[27] = test system: NCI-H226 lung
[28] = test system: T-47D breast
[29] = test system: SF-268 CNS
[30] = test system: UO-31 renal
[31] = test system: SNB-19 CNS
[32] = test system: SR leukemia
[33] = test system: M14 melanoma
[34] = test system: OVCAR-3 ovarian
[35] = test system: MOLT-4 leukemia
[36] = test system: PC-3 prostate
[37] = test system: NCI-H522 lung
[38] = test system: SF-539 CNS
[39] = test system: NCI/ADR-RES ovarian
[40] = test system: RPMI-8226 leukemia
[41] = test system: BT-549 breast
[42] = test system: EKVX NSCLC
[43] = test system: OVCAR-8 ovarian
[44] = test system: COLO 205 colon
[45] = test system: SK-OV-3 ovarian
[46] = test system: HT29 colon
[47] = test system: UACC-257 melanoma
[48] = test system: MALME-3M melanoma
[49] = test system: SK-MEL-2 melanoma
[50] = test system: HOP-92 NSCLC
[51] = test system: HCC-2998 colon
[52] = test system: MDA-MB-231 breast
[53] = test system: CCRF-CEM leukemia
[54] = test system: ACHN renal
[55] = test system: SN12C renal
[56] = test system: MDA-MB-435
[57] = test system: OVCAR-4 ovarian
[58] = test system: CAKI-1 renal
[59] = test system: KM20L2 colon
[60] = test system: DLD-1 colon
[61] = test system: SNB-78 CNS
[62] = test system: LXFL 529 NSCLC
[63] = test system: NCI-H23 lung

Compound: CC(C)(C)c1cc(C(=O)/C=C/c2ccc(C(=O)O)cc2)cc(C(C)(C)C)c1
- TGI [1]: 5.75 µM
- TGI [2]: 6.83 µM
- TGI [3]: 10.4 µM
- TGI [4]: 13.4 µM
- TGI [5]: > 100 µM
- TGI [6]: 14.8 µM
- TGI [7]: 8.54 µM
- TGI [8]: 17.2 µM
- TGI [9]: 4.67 µM
- TGI [10]: 12.2 µM
- TGI [11]: > 100 µM
- TGI [12]: 7.36 µM
- TGI [13]: 11.9 µM
- TGI [14]: 11.2 µM
- TGI [15]: 12.1 µM
- TGI [16]: 8.52 µM
- TGI [17]: 3.96 µM
- TGI [18]: 4.12 µM
- TGI [19]: 15 µM
- TGI [20]: 6.49 µM
- TGI [21]: 8.6 µM
- TGI [22]: 13.9 µM
- TGI [23]: 3.52 µM
- TGI [24]: 7.29 µM
- TGI [25]: 4.34 µM
- TGI [26]: 14.7 µM
- TGI [27]: 4.22 µM
- TGI [28]: 19.8 µM
- TGI [29]: 6.82 µM
- TGI [30]: 17.8 µM
- TGI [31]: 5.74 µM
- TGI [32]: 6.16 µM
- TGI [33]: 3.89 µM
- TGI [34]: 7.31 µM
- TGI [35]: 8.31 µM
- TGI [36]: 16.4 µM
- TGI [37]: 15.4 µM
- TGI [38]: 2.97 µM
- TGI [39]: 6.8 µM
- TGI [40]: 6.06 µM
- TGI [41]: 6.61 µM
- TGI [42]: 16.9 µM
- TGI [43]: 7.13 µM
- TGI [44]: 4.73 µM
- TGI [45]: 12.5 µM
- TGI [46]: 13.2 µM
- TGI [47]: 21.9 µM
- TGI [48]: 7.99 µM
- TGI [49]: 12.7 µM
- TGI [50]: 19.7 µM
- TGI [51]: 3.88 µM
- TGI [52]: 13 µM
- TGI [53]: 9.48 µM
- TGI [54]: 15.5 µM
- TGI [55]: 6.6 µM
- TGI [56]: 6.66 µM
- TGI [57]: 19 µM
- TGI [58]: 15.5 µM

Compound: CCCC(=O)[O-].CCCC(=O)[O-].NCCN.NCCN.[Co+3].[O-][Cl+3]([O-])([O-])[O-]
- TGI [1]: > 100 µM
- GI50 [59]: > 100 µM
- TGI [59]: > 100 µM
- TGI [2]: > 100 µM
- TGI [3]: > 100 µM
- TGI [4]: > 100 µM
- TGI [7]: > 100 µM
- TGI [8]: > 100 µM
- TGI [9]: > 100 µM
- TGI [10]: > 100 µM
- TGI [11]: > 100 µM
- TGI [12]: > 100 µM
- TGI [13]: > 100 µM
- TGI [14]: > 100 µM
- TGI [15]: > 100 µM
- GI50 [60]: > 100 µM
- TGI [60]: > 100 µM
- GI50 [61]: > 100 µM
- TGI [61]: > 100 µM
- TGI [18]: > 100 µM
- TGI [19]: > 100 µM
- TGI [20]: > 100 µM
- TGI [22]: > 100 µM
- TGI [23]: > 100 µM
- TGI [24]: > 100 µM
- TGI [26]: > 100 µM
- GI50 [62]: > 100 µM
- TGI [62]: > 100 µM
- TGI [29]: > 100 µM
- TGI [30]: > 100 µM
- TGI [31]: > 100 µM
- TGI [33]: > 100 µM
- TGI [34]: > 100 µM
- TGI [35]: > 100 µM
- TGI [37]: > 100 µM
- TGI [38]: > 100 µM
- TGI [40]: > 100 µM
- TGI [42]: > 100 µM
- TGI [43]: > 100 µM
- TGI [44]: > 100 µM
- TGI [45]: > 100 µM
- TGI [46]: > 100 µM
- TGI [47]: > 100 µM
- TGI [48]: > 100 µM
- TGI [49]: > 100 µM
- TGI [63]: > 100 µM
- TGI [50]: > 100 µM
- TGI [51]: > 100 µM
- TGI [53]: > 100 µM
- TGI [54]: > 100 µM
- TGI [55]: > 100 µM
- TGI [57]: > 100 µM

Compound: CC1=NC(C)(COC(=O)C2(C)NC(C)(CO)CO2)COC1=O (stereo not drawn)
- TGI [1]: > 100 µM
- TGI [2]: > 100 µM
- TGI [3]: > 100 µM
- TGI [4]: > 100 µM
- TGI [5]: > 100 µM
- TGI [6]: > 100 µM
- TGI [7]: > 100 µM
- TGI [8]: > 100 µM
- TGI [9]: > 100 µM
- TGI [10]: > 100 µM
- TGI [11]: > 100 µM
- TGI [12]: > 100 µM
- TGI [13]: > 100 µM
- TGI [14]: > 100 µM
- TGI [15]: > 100 µM
- TGI [16]: > 100 µM
- TGI [17]: > 100 µM
- TGI [18]: > 100 µM
- TGI [19]: > 100 µM
- TGI [20]: > 100 µM
- TGI [21]: > 100 µM
- TGI [22]: > 100 µM
- TGI [23]: > 100 µM
- TGI [24]: > 100 µM
- TGI [25]: > 100 µM
- TGI [26]: > 100 µM
- TGI [27]: > 100 µM
- TGI [28]: > 100 µM
- TGI [29]: > 100 µM
- TGI [30]: > 100 µM
- TGI [31]: > 100 µM
- TGI [32]: > 100 µM
- TGI [33]: > 100 µM
- TGI [34]: > 100 µM
- TGI [35]: > 100 µM
- TGI [36]: > 100 µM
- TGI [37]: > 100 µM
- TGI [38]: > 100 µM
- TGI [39]: > 100 µM
- TGI [40]: > 100 µM
- TGI [41]: > 100 µM
- TGI [42]: > 100 µM
- TGI [43]: > 100 µM
- TGI [44]: > 100 µM
- TGI [45]: > 100 µM
- TGI [46]: > 100 µM
- TGI [47]: > 100 µM
- TGI [48]: > 100 µM
- TGI [49]: > 100 µM
- TGI [63]: > 100 µM
- TGI [50]: > 100 µM
- TGI [51]: > 100 µM
- TGI [52]: > 100 µM
- TGI [53]: > 100 µM
- TGI [54]: > 100 µM
- TGI [55]: > 100 µM
- TGI [56]: > 100 µM
- TGI [57]: > 100 µM
- TGI [58]: > 100 µM

Compound: Cc1ccnc2c1C(=O)C1=C(OC(C)(C)CC1O)C2=O (stereo not drawn)
- TGI [1]: 15 µM
- TGI [2]: 5.16 µM
- TGI [3]: 9.98 µM
- TGI [4]: 21.6 µM
- TGI [5]: > 24 µM
- TGI [6]: 7.94 µM
- TGI [7]: 8.91 µM
- TGI [8]: 20.6 µM
- TGI [9]: 3.25 µM
- TGI [10]: 11.3 µM
- TGI [11]: > 100 µM
- TGI [12]: 8.97 µM
- TGI [13]: 24.4 µM
- TGI [14]: 13.2 µM
- TGI [15]: 10.4 µM
- TGI [16]: 17.2 µM
- TGI [17]: 15.2 µM
- TGI [18]: 9.97 µM
- TGI [19]: 0.297 µM
- TGI [20]: 13.6 µM
- TGI [21]: 2.9 µM
- TGI [22]: 16.4 µM
- TGI [23]: 32 µM
- TGI [24]: 8.79 µM
- TGI [25]: 23 µM
- TGI [26]: 2.6 µM
- TGI [27]: 21.2 µM
- TGI [28]: 19.4 µM
- TGI [29]: 17.5 µM
- TGI [30]: 11.3 µM
- TGI [31]: 21.1 µM
- TGI [32]: 15.4 µM
- TGI [33]: 9.97 µM
- TGI [34]: 7.18 µM
- TGI [35]: 26.9 µM
- TGI [36]: 13 µM
- TGI [37]: 11.1 µM
- TGI [38]: 10.4 µM
- TGI [39]: 8.93 µM
- TGI [40]: > 39.3 µM
- TGI [41]: 12.7 µM
- TGI [42]: 18.5 µM
- TGI [43]: 11.8 µM
- TGI [44]: 6.52 µM
- TGI [45]: 27.2 µM
- TGI [46]: 10.8 µM
- TGI [47]: 3.47 µM
- TGI [48]: 3.02 µM
- TGI [49]: 8.83 µM
- TGI [63]: 4.82 µM
- TGI [50]: 24.6 µM
- TGI [51]: 15.3 µM
- TGI [52]: 15.4 µM
- TGI [53]: 44.5 µM
- TGI [54]: 22.9 µM
- TGI [55]: 12.4 µM
- TGI [56]: 2.73 µM
- TGI [57]: 12.8 µM
- TGI [58]: 19 µM
